Test [1] addresses Transient receptor potential M8 protein (Canis lupus familiaris, UniProt Q1A7N1). In words: Antagonist activity at dog TRPM8 expressed in HEK293 cells assessed as inhibition of icilin-induced calcium influx incubated for 5 mins prior to icilin induction measured after 5 mins by fluorescence assay. It counts as cell-based.
For a further test, the system named is Rattus norvegicus. The test is described as follows: Anti-cold hypersensitive activity in rat assessed as inhibition of icilin-induced wet-dog shaking at 30 mg/kg, po measured for 10 mins relative to control. It counts as functional.

The values that follow come from ChEMBL document CHEMBL2346592, “Arylglycine derivatives as potent transient receptor potential melastatin 8 (TRPM8) antagonists” (Bioorg Med Chem Lett, 2013).

Transient receptor potential M8 protein, sequence (Q1A7N1 whole entry): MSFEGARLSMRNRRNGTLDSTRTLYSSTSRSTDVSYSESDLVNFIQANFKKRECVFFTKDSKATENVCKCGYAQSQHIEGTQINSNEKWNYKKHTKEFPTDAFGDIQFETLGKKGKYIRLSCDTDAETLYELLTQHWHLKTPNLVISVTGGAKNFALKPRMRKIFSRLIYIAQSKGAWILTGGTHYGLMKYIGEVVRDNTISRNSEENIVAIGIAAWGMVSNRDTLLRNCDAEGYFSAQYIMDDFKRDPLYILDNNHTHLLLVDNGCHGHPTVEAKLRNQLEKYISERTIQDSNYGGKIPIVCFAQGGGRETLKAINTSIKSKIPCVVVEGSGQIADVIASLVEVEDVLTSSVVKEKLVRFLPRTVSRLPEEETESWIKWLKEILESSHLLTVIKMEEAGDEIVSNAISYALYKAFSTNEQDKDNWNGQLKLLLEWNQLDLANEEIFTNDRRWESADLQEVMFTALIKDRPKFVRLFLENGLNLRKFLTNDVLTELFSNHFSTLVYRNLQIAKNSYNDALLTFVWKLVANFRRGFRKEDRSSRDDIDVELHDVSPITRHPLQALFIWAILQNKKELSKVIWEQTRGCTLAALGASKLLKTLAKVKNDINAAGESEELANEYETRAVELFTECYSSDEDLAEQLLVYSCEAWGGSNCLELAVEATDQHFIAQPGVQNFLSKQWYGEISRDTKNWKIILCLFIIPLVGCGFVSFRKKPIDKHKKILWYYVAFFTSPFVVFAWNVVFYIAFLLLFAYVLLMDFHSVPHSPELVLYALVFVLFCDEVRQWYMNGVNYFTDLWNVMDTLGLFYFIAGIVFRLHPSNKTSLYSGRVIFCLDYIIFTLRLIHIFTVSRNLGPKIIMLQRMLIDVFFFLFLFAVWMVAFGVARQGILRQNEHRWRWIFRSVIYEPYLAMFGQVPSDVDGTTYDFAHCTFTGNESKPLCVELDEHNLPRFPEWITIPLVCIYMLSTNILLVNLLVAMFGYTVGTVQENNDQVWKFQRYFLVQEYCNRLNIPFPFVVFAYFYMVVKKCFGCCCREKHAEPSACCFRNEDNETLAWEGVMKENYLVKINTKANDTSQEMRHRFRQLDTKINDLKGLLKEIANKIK

With `O=C(C(Nc1ccccc1F)c1ccc(-c2cccnc2)cc1)N1CCC[C@H]1c1ccccc1F` (mixture of isomers), the half-inhibitory concentration (IC50) in test [1] came out at 7 nM. Moreover, in the test with Rattus norvegicus, the inhibition in vivo at 30 mg/kg is -13%.

On to `O=C(C(Nc1ccccc1F)c1ccc(C(F)(F)F)cc1)N1CCC[C@@H]1c1ccccc1` (stereo partly drawn), for which the IC50 in test [1] worked out at 43 nM.

Consider `O=C([C@H](Nc1ccccc1F)c1ccc(C(F)(F)F)cc1)N1CCC[C@H]1c1ccccc1F`, for which the IC50 in test [1] amounted to 45 nM.

In the case of `O=C([C@@H](Nc1ccccc1F)c1ccc(C(F)(F)F)cc1)N1CCC[C@H]1c1ccccc1F`, the IC50 in test [1] was found to be 6 nM. In addition, the inhibition in vivo at 30 mg/kg in the test on Rattus norvegicus worked out at 99%.

Take `O=C(C(Nc1ccccc1F)c1ccc(C(F)(F)F)cc1)N1CCC[C@@H]1c1ccccc1F` (mixture of isomers): in test [1], the half-inhibitory concentration (IC50) came to 44 nM.

For the molecule `O=C(O)c1cccc(C2CCCN2C(=O)C(Nc2ccccc2F)c2ccc(C(F)(F)F)cc2)c1` (racemic), the IC50 in test [1] turned out to be 40 nM.

As to `O=C(C(Nc1ccccc1F)c1ccc(C(F)(F)F)cc1)N1CCC[C@H]1c1ccccc1` (mixture of isomers), in test [1], the IC50 amounted to 5 nM. Further, in the test with Rattus norvegicus, the inhibition in vivo at 30 mg/kg came to 56%.

Consider `O=C(C(Nc1ccccc1F)c1ccc(Br)cc1)N1CCC[C@H]1c1ccccc1F` (mixture of isomers), for which, in test [1], the IC50 amounted to 9 nM.

In the case of `O=C(C(Nc1ccccc1)c1ccc(C(F)(F)F)cc1)N1CCC[C@@H]1c1ccccc1Cl` (mixture of isomers), the concentration for half-maximal inhibition (IC50) in test [1] turned out to be 168 nM.

Consider `O=C(C(Nc1ccccc1)c1ccc(C(F)(F)F)cc1)N1CCC[C@H]1c1ccccc1Cl` (mixture of isomers), for which, in test [1], the IC50 was found to be 41 nM.

Take `O=C(C(Nc1ccccc1F)c1cc2ccccc2s1)N1CCC[C@H]1c1ccccc1F` (mixture of isomers): in test [1], the IC50 was 3 nM.

Regarding `O=C(O)c1ccc(C2CCCN2C(=O)C(Nc2ccccc2F)c2cc3ccccc3s2)cc1` (racemic), in test [1], the IC50 was 41 nM.

As for `O=C(C(Nc1ccccc1F)c1ccc(C(F)(F)F)cc1)N1CCC[C@H]1c1ccccc1Cl` (mixture of isomers), the IC50 in test [1] came out at 17 nM. In addition, in the test on Rattus norvegicus, the inhibition in vivo at 30 mg/kg amounted to 79%.

`O=C(O)c1ccc(-c2ccc(C(Nc3ccccc3F)C(=O)N3CCC[C@H]3c3ccccc3F)cc2)cc1` (mixture of isomers): in test [1], the IC50 was determined as 56 nM.

Consider `O=C(C(Nc1ccccc1F)c1ccc(C(F)(F)F)cc1)N1CCCC1c1ccccc1Cl` (racemic), for which the IC50 in test [1] amounted to 11 nM.

Consider `O=C(C(Nc1ccccc1F)c1ccc(C(F)(F)F)cc1)N1CCCC1c1ccccc1F` (racemic), for which the IC50 in test [1] turned out to be 7 nM.

For `O=C(C(Nc1ccccc1F)c1ccc(C(F)(F)F)cc1)N1CCC[C@H]1c1ccccc1F` (mixture of isomers), the IC50 in test [1] is 8 nM. Besides, the inhibition in vivo at 30 mg/kg in the test with Rattus norvegicus came out at 63%.

Regarding `O=C(C(Nc1ccccc1F)c1ccc(-c2ccncc2)cc1)N1CCCC1c1ccccc1F` (racemic), the IC50 in test [1] was determined as 25 nM.

A word on the IC50: it is the concentration needed to halve the response being measured. The term inhibition in vivo denotes the relative decrease from the control value, in per cent.
